Data published in ChEMBL document CHEMBL5715954, “Silencing c-Myc translation as a therapeutic strategy through targeting PI3Kδ and CK1ε in hematological malignancies” (Blood, 2017).

Columns and labels:
Design in all cases: scale not given: the % may be the effect or the level left
[1] = target: Tyrosine-protein kinase receptor UFO (Homo sapiens) (UniProt P30530); experiment: Inhibition of human AXL assessed as enzyme activity at 1 uM using poly[Glu:Tyr] (4:1) as substrate preincubated for 20 mins followed by [gamma-33P]-ATP addition and measured after 120 mins by radiometric Hot-SpotSM Kinase assay relative to control
Chain of Tyrosine-protein kinase receptor UFO (Homo sapiens) (P30530 whole entry): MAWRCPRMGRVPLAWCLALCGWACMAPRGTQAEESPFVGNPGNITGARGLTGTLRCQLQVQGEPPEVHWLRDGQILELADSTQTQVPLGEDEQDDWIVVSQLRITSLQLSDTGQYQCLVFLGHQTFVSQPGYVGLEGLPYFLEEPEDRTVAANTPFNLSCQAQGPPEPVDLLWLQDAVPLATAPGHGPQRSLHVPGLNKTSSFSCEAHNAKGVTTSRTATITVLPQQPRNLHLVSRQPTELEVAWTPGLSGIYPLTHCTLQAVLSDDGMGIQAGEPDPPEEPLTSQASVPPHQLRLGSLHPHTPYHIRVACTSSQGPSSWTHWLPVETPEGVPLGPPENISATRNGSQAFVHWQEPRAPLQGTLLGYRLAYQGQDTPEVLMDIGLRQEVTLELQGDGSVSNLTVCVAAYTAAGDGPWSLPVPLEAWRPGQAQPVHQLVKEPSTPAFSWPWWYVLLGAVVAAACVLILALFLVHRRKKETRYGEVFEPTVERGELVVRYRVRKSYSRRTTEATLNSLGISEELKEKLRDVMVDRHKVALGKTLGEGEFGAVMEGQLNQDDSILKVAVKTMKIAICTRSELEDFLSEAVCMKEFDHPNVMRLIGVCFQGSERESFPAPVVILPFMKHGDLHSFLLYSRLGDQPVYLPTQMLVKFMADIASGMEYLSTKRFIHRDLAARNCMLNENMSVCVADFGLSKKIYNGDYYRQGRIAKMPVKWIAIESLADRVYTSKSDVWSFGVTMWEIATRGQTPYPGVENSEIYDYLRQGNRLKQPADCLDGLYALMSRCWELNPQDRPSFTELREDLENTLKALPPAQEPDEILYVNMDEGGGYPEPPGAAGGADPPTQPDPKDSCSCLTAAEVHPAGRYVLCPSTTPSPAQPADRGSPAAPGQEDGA

[2] = target: Tau-tubulin kinase 2 (Homo sapiens) (UniProt Q6IQ55); experiment: Inhibition of human TTBK2 assessed as enzyme activity at 1 uM using myelin basic protein as substrate preincubated for 20 mins followed by [gamma-33P]-ATP addition and measured after 120 mins by radiometric Hot-SpotSM Kinase assay relative to control
Chain of Tau-tubulin kinase 2 (Homo sapiens) (Q6IQ55 whole entry): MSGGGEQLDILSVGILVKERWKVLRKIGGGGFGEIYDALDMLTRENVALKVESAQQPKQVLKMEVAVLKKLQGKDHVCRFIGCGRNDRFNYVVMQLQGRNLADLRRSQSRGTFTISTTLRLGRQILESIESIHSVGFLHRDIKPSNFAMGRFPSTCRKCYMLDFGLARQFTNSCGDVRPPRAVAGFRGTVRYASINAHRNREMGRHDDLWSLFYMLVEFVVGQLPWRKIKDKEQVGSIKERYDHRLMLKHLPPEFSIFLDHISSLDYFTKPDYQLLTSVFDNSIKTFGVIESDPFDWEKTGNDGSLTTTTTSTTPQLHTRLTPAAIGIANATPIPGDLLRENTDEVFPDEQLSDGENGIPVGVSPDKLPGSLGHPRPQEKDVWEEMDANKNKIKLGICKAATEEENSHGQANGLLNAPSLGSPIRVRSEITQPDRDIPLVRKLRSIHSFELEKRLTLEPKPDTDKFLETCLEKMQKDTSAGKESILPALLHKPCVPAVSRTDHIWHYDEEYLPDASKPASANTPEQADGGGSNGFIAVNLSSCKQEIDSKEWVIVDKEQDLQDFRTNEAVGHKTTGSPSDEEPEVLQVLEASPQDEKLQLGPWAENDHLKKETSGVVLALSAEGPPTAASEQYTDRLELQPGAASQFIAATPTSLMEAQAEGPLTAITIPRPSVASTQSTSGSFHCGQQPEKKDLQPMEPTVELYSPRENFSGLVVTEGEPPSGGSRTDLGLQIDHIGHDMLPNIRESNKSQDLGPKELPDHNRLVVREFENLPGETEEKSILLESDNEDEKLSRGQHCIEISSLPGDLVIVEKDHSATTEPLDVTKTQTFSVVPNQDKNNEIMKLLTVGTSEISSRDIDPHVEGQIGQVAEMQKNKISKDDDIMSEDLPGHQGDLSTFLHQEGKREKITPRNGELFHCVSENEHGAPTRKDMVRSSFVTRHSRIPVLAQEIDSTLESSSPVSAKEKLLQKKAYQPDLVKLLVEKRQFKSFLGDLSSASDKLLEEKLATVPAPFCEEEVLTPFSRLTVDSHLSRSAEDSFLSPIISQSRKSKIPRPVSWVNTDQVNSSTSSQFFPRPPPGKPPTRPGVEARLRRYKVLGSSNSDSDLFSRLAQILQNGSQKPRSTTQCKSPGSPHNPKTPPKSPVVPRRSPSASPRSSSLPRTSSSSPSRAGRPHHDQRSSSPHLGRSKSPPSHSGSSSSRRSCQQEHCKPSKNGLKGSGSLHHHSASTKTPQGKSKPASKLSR

[3] = target: Vascular endothelial growth factor receptor 1 (Homo sapiens) (UniProt P17948); experiment: Inhibition of human FLT1 assessed as enzyme activity at 1 uM using poly[Glu:Tyr] (4:1) as substrate preincubated for 20 mins followed by [gamma-33P]-ATP addition and measured after 120 mins by radiometric Hot-SpotSM Kinase assay relative to control
Chain of Vascular endothelial growth factor receptor 1 (Homo sapiens) (P17948 whole entry): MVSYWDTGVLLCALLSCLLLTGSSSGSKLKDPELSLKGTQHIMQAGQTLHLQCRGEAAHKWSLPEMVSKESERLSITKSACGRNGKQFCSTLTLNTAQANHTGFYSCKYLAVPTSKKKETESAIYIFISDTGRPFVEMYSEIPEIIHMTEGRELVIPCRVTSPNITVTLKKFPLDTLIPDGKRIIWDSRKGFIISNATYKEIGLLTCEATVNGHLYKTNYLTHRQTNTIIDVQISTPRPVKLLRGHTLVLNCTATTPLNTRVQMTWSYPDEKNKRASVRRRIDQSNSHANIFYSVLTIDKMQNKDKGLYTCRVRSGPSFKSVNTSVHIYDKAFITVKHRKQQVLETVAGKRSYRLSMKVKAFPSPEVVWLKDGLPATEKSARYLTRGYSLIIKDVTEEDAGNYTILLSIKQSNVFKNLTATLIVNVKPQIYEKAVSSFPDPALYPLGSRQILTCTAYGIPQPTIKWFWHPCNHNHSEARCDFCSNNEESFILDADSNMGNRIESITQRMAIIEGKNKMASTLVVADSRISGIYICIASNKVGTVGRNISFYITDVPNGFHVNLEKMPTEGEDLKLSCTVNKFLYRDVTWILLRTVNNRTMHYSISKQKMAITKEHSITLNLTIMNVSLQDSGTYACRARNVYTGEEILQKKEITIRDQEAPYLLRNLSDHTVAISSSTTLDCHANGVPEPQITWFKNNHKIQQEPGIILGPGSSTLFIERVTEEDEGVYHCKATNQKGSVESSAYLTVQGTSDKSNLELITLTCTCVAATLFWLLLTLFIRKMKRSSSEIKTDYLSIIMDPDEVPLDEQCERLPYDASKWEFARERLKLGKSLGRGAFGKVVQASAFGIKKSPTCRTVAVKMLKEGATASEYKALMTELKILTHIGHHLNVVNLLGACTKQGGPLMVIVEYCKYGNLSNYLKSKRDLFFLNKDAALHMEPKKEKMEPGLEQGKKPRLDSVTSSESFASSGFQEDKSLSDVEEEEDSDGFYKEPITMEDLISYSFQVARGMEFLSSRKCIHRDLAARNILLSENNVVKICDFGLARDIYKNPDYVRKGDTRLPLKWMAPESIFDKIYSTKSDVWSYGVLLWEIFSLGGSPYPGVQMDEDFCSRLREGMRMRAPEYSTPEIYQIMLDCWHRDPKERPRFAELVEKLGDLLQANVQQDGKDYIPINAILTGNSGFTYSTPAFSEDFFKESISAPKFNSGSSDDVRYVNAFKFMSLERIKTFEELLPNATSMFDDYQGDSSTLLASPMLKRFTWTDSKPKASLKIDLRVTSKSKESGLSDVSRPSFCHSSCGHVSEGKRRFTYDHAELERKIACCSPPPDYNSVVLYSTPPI

[4] = target: T1, Serine/threonine-protein kinase ULK2 (Homo sapiens) (UniProt Q8IYT8); experiment: Inhibition of human ULK2 assessed as enzyme activity at 1 uM using myelin basic protein as substrate preincubated for 20 mins followed by [gamma-33P]-ATP addition and measured after 120 mins by radiometric Hot-SpotSM Kinase assay relative to control
T1 sequence (whole entry): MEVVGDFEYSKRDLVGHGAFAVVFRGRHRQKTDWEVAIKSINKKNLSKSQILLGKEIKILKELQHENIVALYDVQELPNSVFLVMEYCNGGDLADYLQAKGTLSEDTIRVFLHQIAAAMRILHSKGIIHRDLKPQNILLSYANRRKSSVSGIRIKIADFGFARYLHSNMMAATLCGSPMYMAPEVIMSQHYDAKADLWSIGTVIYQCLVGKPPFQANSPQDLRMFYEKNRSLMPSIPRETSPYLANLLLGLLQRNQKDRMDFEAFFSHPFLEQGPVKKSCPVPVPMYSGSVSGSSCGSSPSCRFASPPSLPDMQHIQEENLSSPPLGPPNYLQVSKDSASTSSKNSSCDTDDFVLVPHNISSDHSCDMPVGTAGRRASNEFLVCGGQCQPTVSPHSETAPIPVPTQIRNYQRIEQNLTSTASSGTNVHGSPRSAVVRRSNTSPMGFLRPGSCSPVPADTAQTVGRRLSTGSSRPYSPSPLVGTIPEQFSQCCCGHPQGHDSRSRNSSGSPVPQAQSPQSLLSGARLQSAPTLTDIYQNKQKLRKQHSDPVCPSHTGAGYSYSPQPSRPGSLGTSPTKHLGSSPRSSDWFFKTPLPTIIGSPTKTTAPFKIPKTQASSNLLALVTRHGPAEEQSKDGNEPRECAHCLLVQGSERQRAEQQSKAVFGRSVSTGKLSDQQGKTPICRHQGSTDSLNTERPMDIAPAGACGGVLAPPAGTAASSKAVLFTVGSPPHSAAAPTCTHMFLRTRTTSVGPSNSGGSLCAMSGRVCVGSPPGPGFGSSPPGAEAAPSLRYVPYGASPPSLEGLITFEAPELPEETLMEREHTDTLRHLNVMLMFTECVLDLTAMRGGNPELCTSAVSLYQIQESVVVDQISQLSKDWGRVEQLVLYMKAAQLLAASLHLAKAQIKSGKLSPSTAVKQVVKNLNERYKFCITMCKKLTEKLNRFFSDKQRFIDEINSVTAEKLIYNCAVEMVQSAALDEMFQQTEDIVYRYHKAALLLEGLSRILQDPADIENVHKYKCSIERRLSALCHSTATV

[5] = target: Serine/threonine-protein kinase SIK1 (Homo sapiens) (UniProt P57059); experiment: Inhibition of human SIK1 assessed as enzyme activity at 1 uM using AMARAASAAALARRR as substrate preincubated for 20 mins followed by [gamma-33P]-ATP addition and measured after 120 mins by radiometric Hot-SpotSM Kinase assay relative to control
Chain of Serine/threonine-protein kinase SIK1 (Homo sapiens) (P57059 whole entry): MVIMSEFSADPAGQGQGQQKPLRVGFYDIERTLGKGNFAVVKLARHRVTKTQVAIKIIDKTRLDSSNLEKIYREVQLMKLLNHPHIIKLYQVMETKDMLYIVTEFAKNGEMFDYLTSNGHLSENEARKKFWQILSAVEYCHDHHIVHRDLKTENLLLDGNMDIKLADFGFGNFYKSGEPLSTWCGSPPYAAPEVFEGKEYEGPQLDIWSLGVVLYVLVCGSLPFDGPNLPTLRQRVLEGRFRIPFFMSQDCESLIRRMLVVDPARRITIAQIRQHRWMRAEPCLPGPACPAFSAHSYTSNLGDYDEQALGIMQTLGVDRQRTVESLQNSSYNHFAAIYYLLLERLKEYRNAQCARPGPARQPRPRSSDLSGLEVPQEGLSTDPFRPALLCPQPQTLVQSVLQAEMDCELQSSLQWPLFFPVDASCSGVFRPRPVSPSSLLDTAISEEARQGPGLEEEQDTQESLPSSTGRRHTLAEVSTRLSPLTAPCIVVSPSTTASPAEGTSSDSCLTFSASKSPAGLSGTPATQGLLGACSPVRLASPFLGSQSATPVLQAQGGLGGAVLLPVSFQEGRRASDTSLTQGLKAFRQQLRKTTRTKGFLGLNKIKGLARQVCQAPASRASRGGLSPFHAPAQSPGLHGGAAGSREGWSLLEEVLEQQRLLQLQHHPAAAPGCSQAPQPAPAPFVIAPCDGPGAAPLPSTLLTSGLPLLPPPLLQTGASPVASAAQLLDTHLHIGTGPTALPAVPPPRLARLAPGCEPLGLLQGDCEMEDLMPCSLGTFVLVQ

[6] = target: T2, Kinase suppressor of Ras 1 (Homo sapiens) (UniProt Q8IVT5); experiment: Inhibition of human KSR1 assessed as enzyme activity at 1 uM using KRREILSRRPSYR as substrate preincubated for 20 mins followed by [gamma-33P]-ATP addition and measured after 120 mins by radiometric Hot-SpotSM Kinase assay relative to control
T2 sequence (whole entry): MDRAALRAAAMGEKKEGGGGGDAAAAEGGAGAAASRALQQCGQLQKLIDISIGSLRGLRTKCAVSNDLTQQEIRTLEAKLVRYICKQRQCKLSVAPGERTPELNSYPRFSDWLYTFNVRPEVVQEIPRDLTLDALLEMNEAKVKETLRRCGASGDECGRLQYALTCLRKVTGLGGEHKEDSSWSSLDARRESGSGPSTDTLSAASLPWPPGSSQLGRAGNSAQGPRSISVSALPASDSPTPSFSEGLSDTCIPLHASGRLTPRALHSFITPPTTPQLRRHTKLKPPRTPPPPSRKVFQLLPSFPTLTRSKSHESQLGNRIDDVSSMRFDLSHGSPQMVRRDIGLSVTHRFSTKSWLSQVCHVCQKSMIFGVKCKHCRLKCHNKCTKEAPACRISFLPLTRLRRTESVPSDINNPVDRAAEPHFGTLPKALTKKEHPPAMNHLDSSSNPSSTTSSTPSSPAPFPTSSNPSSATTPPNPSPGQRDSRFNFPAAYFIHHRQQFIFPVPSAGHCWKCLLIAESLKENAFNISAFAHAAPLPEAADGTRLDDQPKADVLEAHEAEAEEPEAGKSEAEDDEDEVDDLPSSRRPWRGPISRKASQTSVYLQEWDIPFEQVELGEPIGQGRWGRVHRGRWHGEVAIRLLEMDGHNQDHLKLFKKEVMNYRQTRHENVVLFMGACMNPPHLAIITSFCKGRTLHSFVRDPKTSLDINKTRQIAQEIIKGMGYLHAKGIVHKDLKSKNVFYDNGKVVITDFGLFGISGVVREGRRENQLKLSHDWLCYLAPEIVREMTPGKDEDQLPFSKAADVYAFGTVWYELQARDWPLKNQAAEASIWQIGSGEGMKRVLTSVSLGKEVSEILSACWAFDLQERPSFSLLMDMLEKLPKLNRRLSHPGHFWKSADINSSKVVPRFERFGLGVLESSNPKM

[7] = target: CDK18/Cyclin Y (Homo sapiens) (UniProt Q07002+Q8ND76); experiment: Inhibition of human CDK18/cyclin Y assessed as enzyme activity at 1 uM using RB Protein as substrate preincubated for 20 mins followed by [gamma-33P]-ATP addition and measured after 120 mins by radiometric Hot-SpotSM Kinase assay relative to control; type: protein-complex assay

SMILES: C[C@H](Nc1ncnc2nc[nH]c12)c1cc2cccc(Cl)c2c(=O)n1-c1ccccc1
- Activity [1]: 93.9%
- Activity [2]: 95.8%
- Activity [3]: 94.3%
- Activity [4]: 98.4%
- Activity [5]: 95.7%
- Activity [6]: 99.2%
- Activity [7]: 100%

SMILES: CC[C@H](Nc1ncnc2[nH]cnc12)c1nc2cccc(F)c2c(=O)n1-c1ccccc1
- Activity [1]: 93.5%
- Activity [2]: 90.6%
- Activity [3]: 94.4%
- Activity [4]: 89.3%
- Activity [5]: 95.5%
- Activity [6]: 102%
- Activity [7]: 85.7%

SMILES: CC(C)Oc1ccc(-c2nn([C@@H](C)c3oc4ccc(F)cc4c(=O)c3-c3cccc(F)c3)c3ncnc(N)c23)cc1F [UMBRALISIB]
- Activity [1]: 91.2%
- Activity [2]: 96.7%
- Activity [3]: 92.3%
- Activity [4]: 101%
- Activity [5]: 98.2%
- Activity [6]: 103%
- Activity [7]: 94.6%
